# According to patent US20100227313A1, “Methods and Compositions for Determining Altered Susceptibility of HIV-1 to Protease Inhibitor Treatment” (priority 2007, published 2010):
# Test system: HIV-1
# Test: Resistance test vector (PHENOSENSE) phenotypic susceptibility assay, fold change in IC50, correlated with genotype (Fisher's Exact test, odds ratio)
# Format: cell-based, human immunodeficiency virus type 1
# Excerpt: See Petropoulos et al., 2000, Antimicrob. Agents Chemother. 44:920-928; U.S. Pat. Nos. 5,837,464 and 6,242,187. PHENOSENSE™ is a phenotypic assay that achieves the benefits of phenotypic testing and overcomes the drawbacks of previous assays.
# PHENOSENSE™ can obtain results with only one round of viral replication, thereby avoiding selection of subpopulations of virus that can occur during preparation of viral stocks required for assays that rely on fully infectious virus.
# A resistance test vector (“RTV”) can then be constructed by incorporating the amplified viral gene sequences into a replication defective viral vector by using any method known in the art of incorporating gene sequences into a vector. In one embodiment, restrictions enzymes and conventional cloning methods are used. See Sambrook et al., 2001, Molecular Cloning: A Laboratory Manual, Cold Spring Harbor Laboratory, 3rd ed., NY; and Ausubel et al., 1989, Current Protocols in Molecular Biology, Greene Publishing Associates and Wiley Interscience, NY. In a preferred embodiment, ApaI and PinAI restriction enzymes are used. Preferably, the replication defective viral vector is the indicator gene viral vector (“IGVV”). In a preferred embodiment, the viral vector contains a means for detecting replication of the RTV. Preferably, the viral vector contains a luciferase expression cassette.
# The assay can be performed by first co-transfecting host cells with RTV DNA and a plasmid that expresses the envelope proteins of another retrovirus, for example, amphotropic murine leukemia virus (MLV). Following transfection, viral particles can be harvested from the cell culture and used to infect fresh target cells in the presence of varying amounts of anti-viral drug(s). The completion of a single round of viral replication in the fresh target cells can be detected by the means for detecting replication contained in the vector. In a preferred embodiment, the completion of a single round of viral replication results in the production of luciferase. By monitoring the amount of, e.g., luciferase activity in the presence of the varying amounts of antiviral drug(s), a resistance curve can be constructed by plotting luciferase activity versus drug concentration. The susceptibility of an HIV, or population of HIV, can be determined by measuring the concentration of antiviral drug at which the luciferase activity detected is half-maximal. This number, the IC50, provides a standard and convenient measure of drug resistance.
# Patient derived segment(s) corresponding to the HIV protease and reverse transcriptase coding regions were amplified by the reverse transcription polymerase chain reaction method (RT PCR) using viral RNA isolated from viral particles present in the plasma or serum of HIV infected individuals as follows. Viral RNA was isolated from the plasma or serum using oligo-dT magnetic beads (Dynal Biotech, Oslo, Norway), followed by washing and elution of viral RNA. The RT PCR protocol was divided into two steps. A retroviral reverse transcriptase (e.g. Moloney MuLV reverse transcriptase (Roche Molecular Systems, Inc., Branchburg, N.J.; Invitrogen, Carlsbad, Calif.), or avian myeloblastosis virus (AMV) reverse transcriptase, (Boehringer Mannheim, Indianapolis, Ind.) was used to copy viral RNA into cDNA. The cDNA was then amplified using a thermostable DNA polymerase (e.g. Taq (Roche Molecular Systems, Inc., Branchburg, N.J.), Tth (Roche Molecular Systems, Inc., Branchburg, N.J.), PRIMEZYME™ (isolated from Thermus brockianus, Biometra, Gottingen, Germany)) or a combination of thermostable polymerases as described for the performance of “long PCR” (Barnes, W.M., 1994, Proc. Natl. Acad. Sci, USA 91, 2216 20) (e.g. Expand High Fidelity PCR System (Taq+Pwo), (Boehringer Mannheim. Indianapolis, Ind.); GENEAMP XL™ PCR kit (Tth+Vent), (Roche Molecular Systems, Inc., Branchburg, N.J.); or […] II®, Clontech, Palo Alto, Calif.)
compound,measurement,setting,value
"CC(C)CN(C[C@@H](O)[C@H](Cc1ccccc1)NC(=O)O[C@H]1CO[C@H]2OCC[C@H]21)S(=O)(=O)c1ccc(N)cc1 [DRV, darunavir]",Odds Ratio,"mutation A71I in PR, reduced susceptibility (FC>2)",1.74
same,Odds Ratio,"mutation A71L in PR, reduced susceptibility (FC>2)",16.53
same,Odds Ratio,"mutation A71T in PR, increased susceptibility (Table 3)",0.74
same,Odds Ratio,"mutation A431I in gag, reduced susceptibility (FC>2)",5.60
same,Odds Ratio,"mutation A431V in gag, reduced susceptibility (FC>2)",1.94
same,Odds Ratio,"mutation C67F in PR, reduced susceptibility (FC>2)",3.72
same,Odds Ratio,"mutation C95F in PR, reduced susceptibility (FC>2)",3.13
same,Odds Ratio,"mutation D30N in PR, increased susceptibility (Table 3)",0.20
same,Odds Ratio,"mutation D425E in gag, reduced susceptibility (FC>2)",1.49
same,Odds Ratio,"mutation E35N in PR, reduced susceptibility (FC>2)",2.90
same,Odds Ratio,"mutation E428D in gag, reduced susceptibility (FC>2)",2.41
same,Odds Ratio,"mutation E467K in gag, reduced susceptibility (FC>2)",2.41
same,Odds Ratio,"mutation E468K in gag, reduced susceptibility (FC>2)",2.24
same,Odds Ratio,"mutation F53L in PR, reduced susceptibility (FC>2)",2.30
same,Odds Ratio,"mutation F53Y in PR, reduced susceptibility (FC>2)",3.43
same,Odds Ratio,"mutation F463L in gag, reduced susceptibility (FC>2)",1.68
same,Odds Ratio,"mutation F463S in gag, reduced susceptibility (FC>2)",3.18
same,Odds Ratio,"mutation F463V in gag, reduced susceptibility (FC>2)",2.89
same,Odds Ratio,"mutation F465L in gag, reduced susceptibility (FC>2)",1.66
same,Odds Ratio,"mutation F465S in gag, reduced susceptibility (FC>2)",2.45
same,Odds Ratio,"mutation G16A in PR, reduced susceptibility (FC>2)",3.73
same,Odds Ratio,"mutation G73A in PR, reduced susceptibility (FC>2)",8.81
same,Odds Ratio,"mutation G73C in PR, reduced susceptibility (FC>2)",2.24
same,Odds Ratio,"mutation G73T in PR, reduced susceptibility (FC>2)",7.84
same,Odds Ratio,"mutation H69R in PR, reduced susceptibility (FC>2)",2.59
same,Odds Ratio,"mutation H441Q in gag, reduced susceptibility (FC>2)",1.99
same,Odds Ratio,"mutation H441Y in gag, increased susceptibility (Table 3)",0.59
same,Odds Ratio,"mutation I13V in PR, reduced susceptibility (FC>2)",1.71
same,Odds Ratio,"mutation I15V in PR, reduced susceptibility (FC>2)",1.53
same,Odds Ratio,"mutation I47V in PR, reduced susceptibility (FC>2)",13.64
same,Odds Ratio,"mutation I50L in PR, increased susceptibility (Table 3)",0.12
same,Odds Ratio,"mutation I54A in PR, reduced susceptibility (FC>2)",2.37
same,Odds Ratio,"mutation I54L in PR, reduced susceptibility (FC>2)",5.50
same,Odds Ratio,"mutation I54M in PR, reduced susceptibility (FC>2)",14.47
same,Odds Ratio,"mutation I64L in PR, increased susceptibility (Table 3)",0.62
same,Odds Ratio,"mutation I64V in PR, increased susceptibility (Table 3)",0.84
same,Odds Ratio,"mutation I66F in PR, reduced susceptibility (FC>2)",3.25
same,Odds Ratio,"mutation I66V in PR, reduced susceptibility (FC>2)",4.86
same,Odds Ratio,"mutation I72L in PR, reduced susceptibility (FC>2)",3.02
same,Odds Ratio,"mutation I84V in PR, reduced susceptibility (FC>2)",7.06
same,Odds Ratio,"mutation I85V in PR, reduced susceptibility (FC>2)",2.76
same,Odds Ratio,"mutation I93L in PR, increased susceptibility (Table 3)",0.88
same,Odds Ratio,"mutation I437V in gag, reduced susceptibility (FC>2)",1.95
same,Odds Ratio,"mutation K20R in PR, reduced susceptibility (FC>2)",1.90
same,Odds Ratio,"mutation K20T in PR, reduced susceptibility (FC>2)",1.54
same,Odds Ratio,"mutation K20V in PR, reduced susceptibility (FC>2)",3.40
same,Odds Ratio,"mutation K43R in PR, increased susceptibility (Table 3)",0.30
same,Odds Ratio,"mutation K43T in PR, reduced susceptibility (FC>2)",3.72
same,Odds Ratio,"mutation K45R in PR, increased susceptibility (Table 3)",0.35
same,Odds Ratio,"mutation K55N in PR, reduced susceptibility (FC>2)",10.28
same,Odds Ratio,"mutation K55R in PR, reduced susceptibility (FC>2)",2.70
same,Odds Ratio,"mutation L10F in PR, reduced susceptibility (FC>2)",2.59
same,Odds Ratio,"mutation L19P in PR, reduced susceptibility (FC>2)",7.16
same,Odds Ratio,"mutation L23I in PR, reduced susceptibility (FC>2)",2.10
same,Odds Ratio,"mutation L24F in PR, reduced susceptibility (FC>2)",8.57
same,Odds Ratio,"mutation L33F in PR, reduced susceptibility (FC>2)",6.78
same,Odds Ratio,"mutation L63A in PR, increased susceptibility (Table 3)",0.53
same,Odds Ratio,"mutation L63Q in PR, increased susceptibility (Table 3)",0.49
same,Odds Ratio,"mutation L63S in PR, increased susceptibility (Table 3)",0.54
same,Odds Ratio,"mutation L76V in PR, reduced susceptibility (FC>2)",11.18
same,Odds Ratio,"mutation L89I in PR, reduced susceptibility (FC>2)",2.16
same,Odds Ratio,"mutation L89M in PR, reduced susceptibility (FC>2)",1.51
same,Odds Ratio,"mutation L89V in PR, reduced susceptibility (FC>2)",44.56
same,Odds Ratio,"mutation L449V in gag, reduced susceptibility (FC>2)",4.73
same,Odds Ratio,"mutation L486S in gag, increased susceptibility (Table 3)",0.51
same,Odds Ratio,"mutation M36L in PR, reduced susceptibility (FC>2)",2.20
same,Odds Ratio,"mutation M46I in PR, reduced susceptibility (FC>2)",1.92
same,Odds Ratio,"mutation M46L in PR, reduced susceptibility (FC>2)",1.60
same,Odds Ratio,"mutation N88D in PR, increased susceptibility (Table 3)",0.34
same,Odds Ratio,"mutation N88S in PR, increased susceptibility (Table 3)",0.17
same,Odds Ratio,"mutation P79A in PR, reduced susceptibility (FC>2)",5.35
same,Odds Ratio,"mutation P79S in PR, reduced susceptibility (FC>2)",4.96
same,Odds Ratio,"mutation P453L in gag, reduced susceptibility (FC>2)",1.80
same,Odds Ratio,"mutation P453V in gag, reduced susceptibility (FC>2)",6.86
same,Odds Ratio,"mutation P459T in gag, reduced susceptibility (FC>2)",1.69
same,Odds Ratio,"mutation Q58E in PR, reduced susceptibility (FC>2)",2.41
same,Odds Ratio,"mutation Q61N in PR, reduced susceptibility (FC>2)",2.48
same,Odds Ratio,"mutation R452K in gag, reduced susceptibility (FC>2)",2.99
same,Odds Ratio,"mutation R452S in gag, reduced susceptibility (FC>2)",3.92
same,Odds Ratio,"mutation S451N in gag, increased susceptibility (Table 3)",0.68
same,Odds Ratio,"mutation S451T in gag, reduced susceptibility (FC>2)",1.78
same,Odds Ratio,"mutation S462N in gag, reduced susceptibility (FC>2)",2.29
same,Odds Ratio,"mutation S488A in gag, reduced susceptibility (FC>2)",2.02
same,Odds Ratio,"mutation S498L in gag, increased susceptibility (Table 3)",0.48
same,Odds Ratio,"mutation S499L in gag, increased susceptibility (Table 3)",0.56
same,Odds Ratio,"mutation T4A in PR, reduced susceptibility (FC>2)",10.65
same,Odds Ratio,"mutation T4S in PR, reduced susceptibility (FC>2)",2.80
same,Odds Ratio,"mutation T12P in PR, reduced susceptibility (FC>2)",1.84
same,Odds Ratio,"mutation V11I in PR, reduced susceptibility (FC>2)",12.85
same,Odds Ratio,"mutation V32I in PR, reduced susceptibility (FC>2)",18.66
same,Odds Ratio,"mutation V77I in PR, increased susceptibility (Table 3)",0.64
same,Odds Ratio,"mutation V82A in PR, reduced susceptibility (FC>2)",1.12
same,Odds Ratio,"mutation V82C in PR, reduced susceptibility (FC>2)",3.67
same,Odds Ratio,"mutation V82F in PR, reduced susceptibility (FC>2)",5.47
same,Odds Ratio,"mutation V82I in PR, reduced susceptibility (FC>2)",2.31
same,Odds Ratio,"mutation V82L in PR, reduced susceptibility (FC>2)",5.44
same,Odds Ratio,"mutation V82T in PR, reduced susceptibility (FC>2)",1.84
